Patent US7728012B2, “Carboxamide compounds and their use as calpain inhibitors” (Abbott GmbH & Co. KG, priority 2006, dated 2010)

Tests used:
Type in all cases: biochemical
[1] = target: T1, cathepsin L isolated from human liver (Homo sapiens, UniProt P07711); experiment: Cathepsin L kinetic fluorescence enzyme inhibition assay; settings: selectivity ratio versus calpain I
T1 construct: cathepsin L—isolated from human liver; purchased Calbiochem 219402; host or cells: human liver (tissue isolate)
T1 sequence (P07711 114-333): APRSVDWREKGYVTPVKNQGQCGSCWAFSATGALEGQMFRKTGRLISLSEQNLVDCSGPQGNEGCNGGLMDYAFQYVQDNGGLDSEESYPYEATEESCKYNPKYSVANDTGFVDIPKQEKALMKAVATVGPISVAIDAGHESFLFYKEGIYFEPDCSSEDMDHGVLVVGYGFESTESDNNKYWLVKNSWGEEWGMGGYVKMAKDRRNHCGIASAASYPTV
How it was run: (§1)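 Inhibition is measured at room temperature in cysteine-containing MES buffer, pH 6.0, by continuous fluorescence at 460 nm. Cathepsin S (0.5 nM) uses 20 μM Z-Val-Val-Arg-AMC; L (1 nM) and B (0.25 nM) use Z-Phe-Arg-AMC at 2 and 100 μM respectively.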

[2] = target: T2, calpain-I isolated from human erythrocytes (Homo sapiens, UniProt P07384); experiment: Calpain I kinetic fluorescence enzyme inhibition assay; settings: apparent Ki from IC50 by Cheng-Prussoff; average of 2 to 4 dose-effect plots
T2 construct: calpain-I—isolated from human erythrocytes; purchased Calbiochem 208713; host or cells: human erythrocytes (tissue isolate)
T2 sequence (P07384 1-714): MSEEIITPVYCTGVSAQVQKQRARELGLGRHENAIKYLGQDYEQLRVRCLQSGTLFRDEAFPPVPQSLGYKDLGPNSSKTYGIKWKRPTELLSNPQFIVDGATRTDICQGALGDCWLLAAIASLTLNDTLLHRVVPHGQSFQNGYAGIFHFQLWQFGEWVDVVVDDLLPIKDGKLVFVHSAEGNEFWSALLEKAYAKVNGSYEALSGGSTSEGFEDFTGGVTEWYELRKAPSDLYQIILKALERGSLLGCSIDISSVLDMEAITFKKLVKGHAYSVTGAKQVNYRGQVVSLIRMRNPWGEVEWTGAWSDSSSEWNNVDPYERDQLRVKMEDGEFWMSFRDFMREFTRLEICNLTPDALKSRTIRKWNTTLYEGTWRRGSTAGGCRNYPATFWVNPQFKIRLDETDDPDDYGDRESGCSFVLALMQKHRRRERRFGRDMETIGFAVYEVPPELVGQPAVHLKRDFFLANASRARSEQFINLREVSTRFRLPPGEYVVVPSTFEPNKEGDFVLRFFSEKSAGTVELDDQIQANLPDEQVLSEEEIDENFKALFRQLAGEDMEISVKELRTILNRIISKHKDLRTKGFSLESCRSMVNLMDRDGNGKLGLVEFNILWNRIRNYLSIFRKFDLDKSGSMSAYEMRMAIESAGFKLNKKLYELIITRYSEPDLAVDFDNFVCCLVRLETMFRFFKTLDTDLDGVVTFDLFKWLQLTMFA
T2 sequence (P04632 1-268 partner): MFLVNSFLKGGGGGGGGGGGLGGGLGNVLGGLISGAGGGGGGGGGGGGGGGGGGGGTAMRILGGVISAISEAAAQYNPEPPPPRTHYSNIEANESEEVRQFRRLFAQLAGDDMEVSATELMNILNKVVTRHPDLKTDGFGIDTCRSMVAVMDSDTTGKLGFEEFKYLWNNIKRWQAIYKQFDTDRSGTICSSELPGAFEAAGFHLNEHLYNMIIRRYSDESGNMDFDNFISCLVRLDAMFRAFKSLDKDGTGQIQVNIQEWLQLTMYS

[3] = target: T3, cathepsin K activated from recombinant human procathepsin K (Homo sapiens, UniProt P43235); experiment: Cathepsin K kinetic fluorescence enzyme inhibition assay; settings: selectivity ratio versus calpain I
T3 construct: purchased Calbiochem 342001; host or cells: E. coli
T3 sequence (P43235 115-329): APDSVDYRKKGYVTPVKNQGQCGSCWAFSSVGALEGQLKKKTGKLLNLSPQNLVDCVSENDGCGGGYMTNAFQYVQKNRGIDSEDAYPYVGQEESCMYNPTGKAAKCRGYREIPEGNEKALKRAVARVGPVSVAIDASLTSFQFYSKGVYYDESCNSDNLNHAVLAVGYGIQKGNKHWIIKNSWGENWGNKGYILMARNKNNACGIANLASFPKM

[4] = target: T4, recombinant human cathepsin S (Homo sapiens, UniProt P25774); experiment: Cathepsin S kinetic fluorescence enzyme inhibition assay; settings: selectivity ratio versus calpain I
T4 construct: purchased Calbiochem 219343; host or cells: E. coli
T4 sequence (P25774 115-331): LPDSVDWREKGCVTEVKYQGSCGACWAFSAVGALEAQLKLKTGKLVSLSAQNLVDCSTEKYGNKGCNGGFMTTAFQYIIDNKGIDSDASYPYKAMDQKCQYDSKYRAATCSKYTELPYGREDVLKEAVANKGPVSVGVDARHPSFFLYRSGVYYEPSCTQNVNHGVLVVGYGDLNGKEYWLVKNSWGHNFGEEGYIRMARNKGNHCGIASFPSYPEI
How it was run: as §1

[5] = target: T5, cathepsin B isolated from human liver (Homo sapiens, UniProt P07858); experiment: Cathepsin B kinetic fluorescence enzyme inhibition assay; settings: selectivity ratio versus calpain I
T5 construct: cathepsin B—isolated from human liver; purchased Calbiochem 219362; host or cells: human liver (tissue isolate)
How it was run: as §1

| SMILES | Sel cat. L (Ki(cathepsin L)/Ki(calpain) ratio) [1] | Ki [2] | Sel cat. K (Ki(cathepsin K)/Ki(calpain) ratio) [3] | Sel cat. S (Ki(cathepsin S)/Ki(calpain) ratio) [4] | Sel cat. B (Ki(cathepsin B)/Ki(calpain) ratio) [5] |
| --- | --- | --- | --- | --- | --- |
| NC(=O)C(=O)C(Cc1ccccc1)NC(=O)c1cccnc1-n1ccc(-c2cccc(OCc3ccccc3)c2)n1 (stereo not shown) [Example 96, N-[3-Amino-2,3-dioxo-1-(phenylmethyl)propyl]-2-(3-{3-[(phenylmethyl)oxy]phenyl}-1H-pyrazol-1-yl)pyridine-3-carboxamide] | ++ (Ki(cathepsin L)/Ki(calpain) ratio of ≧50) | ≤ 0.04 µM | ++ (Ki(cathepsin K)/Ki(calpain) ratio of ≧30) | ++ (Ki(cathepsin S)/Ki(calpain) ratio of ≧100) | ++ (Ki(cathepsin B)/Ki(calpain) ratio of ≧30) |
| COc1ccc(CC(NC(=O)c2cccnc2-n2ccc(-c3ccc(F)cc3F)n2)C(=O)C(N)=O)cc1 (stereo not shown) [Example 97, N-(3-Amino-1-{[4-(methyloxy)phenyl]methyl}-2,3-dioxopropyl)-2-[3-(2,4-difluorophenyl)-1H-pyrazol-1-yl]pyridine-3-carboxamide] | ++ (Ki(cathepsin L)/Ki(calpain) ratio of ≧50) | ≤ 0.04 µM | + (10≦Ki(cathepsin K)/Ki(calpain)<30) | ++ (Ki(cathepsin S)/Ki(calpain) ratio of ≧100) | ++ (Ki(cathepsin B)/Ki(calpain) ratio of ≧30) |
| COc1ccc(CC(NC(=O)c2cccnc2-n2ccc(-c3ccc(Cl)cc3Cl)n2)C(=O)C(N)=O)cc1 (stereo not shown) [Example 98, N-(3-Amino-1-{[4-(methyloxy)phenyl]methyl}-2,3-dioxopropyl)-2-[3-(2,4-dichlorophenyl)-1H-pyrazol-1-yl]pyridine-3-carboxamide] | ++ (Ki(cathepsin L)/Ki(calpain) ratio of ≧50) | ≤ 0.04 µM | ++ (Ki(cathepsin K)/Ki(calpain) ratio of ≧30) | ++ (Ki(cathepsin S)/Ki(calpain) ratio of ≧100) | ++ (Ki(cathepsin B)/Ki(calpain) ratio of ≧30) |
| NC(=O)C(=O)C(Cc1ccccc1)NC(=O)c1cccnc1-n1ccc(-c2ccc(N3CCOCC3)cc2Cl)n1 (stereo not shown) [Example 99, N-[3-Amino-2,3-dioxo-1-(phenylmethyl)propyl]-2-[3-(2-chloro-4-morpholin-4-ylphenyl)-1H-pyrazol-1-yl]pyridine-3-carboxamide] | ++ (Ki(cathepsin L)/Ki(calpain) ratio of ≧50) | ≤ 0.04 µM | ++ (Ki(cathepsin K)/Ki(calpain) ratio of ≧30) | ++ (Ki(cathepsin S)/Ki(calpain) ratio of ≧100) | ++ (Ki(cathepsin B)/Ki(calpain) ratio of ≧30) |
| NC(=O)C(=O)C(Cc1ccccc1)NC(=O)c1cccnc1-n1cc2c(n1)-c1ccccc1OC2 (stereo not shown) [Example 100, N-[3-Amino-2,3-dioxo-1-(phenylmethyl)propyl]-2-chromeno[4,3-c]pyrazol-2(4H)-ylpyridine-3-carboxamide] | ++ (Ki(cathepsin L)/Ki(calpain) ratio of ≧50) | ≤ 0.04 µM | ++ (Ki(cathepsin K)/Ki(calpain) ratio of ≧30) | ++ (Ki(cathepsin S)/Ki(calpain) ratio of ≧100) | + (10≦Ki(cathepsin B)/Ki(calpain)<30) |
| NC(=O)C(=O)C(Cc1ccccc1)NC(=O)c1cccnc1-n1ccc(-c2ccc(N3CCOCC3)cc2F)n1 (stereo not shown) [Example 102, N-[3-Amino-2,3-dioxo-1-(phenylmethyl)propyl]-2-[3-(2-fluoro-4-morpholin-4-ylphenyl)-1H-pyrazol-1-yl]pyridine-3-carboxamide] | ++ (Ki(cathepsin L)/Ki(calpain) ratio of ≧50) | ≤ 0.04 µM | ++ (Ki(cathepsin K)/Ki(calpain) ratio of ≧30) | ++ (Ki(cathepsin S)/Ki(calpain) ratio of ≧100) | + (10≦Ki(cathepsin B)/Ki(calpain)<30) |
| NC(=O)C(=O)C(Cc1ccccc1)NC(=O)c1cccnc1-n1ccc(-c2ccc(Cl)s2)n1 (stereo not shown) [Example 103, N-[3-Amino-2,3-dioxo-1-(phenylmethyl)propyl]-2-[3-(5-chloro-2-thienyl)-1H-pyrazol-1-yl]pyridine-3-carboxamide] | ++ (Ki(cathepsin L)/Ki(calpain) ratio of ≧50) | ≤ 0.04 µM | + (10≦Ki(cathepsin K)/Ki(calpain)<30) | ++ (Ki(cathepsin S)/Ki(calpain) ratio of ≧100) | + (10≦Ki(cathepsin B)/Ki(calpain)<30) |
| NC(=O)C(=O)[C@H](Cc1ccccc1)NC(=O)c1cccnc1-n1ccc(-c2ccccc2)n1 [Example 107, N-[(1S)-3-Amino-2,3-dioxo-1-(phenylmethyl)propyl]-2-(3-phenyl-1H-pyrazol-1-yl)pyridine-3-carboxamide] | ++ (Ki(cathepsin L)/Ki(calpain) ratio of ≧50) | ≤ 0.04 µM | + (10≦Ki(cathepsin K)/Ki(calpain)<30) | ++ (Ki(cathepsin S)/Ki(calpain) ratio of ≧100) | + (10≦Ki(cathepsin B)/Ki(calpain)<30) |
| NC(=O)C(=O)C(Cc1ccccc1)NC(=O)c1cccnc1-n1ccc(-c2sccc2Cl)n1 (stereo not shown) [Example 109, N-[3-Amino-2,3-dioxo-1-(phenylmethyl)propyl]-2-[3-(3-chloro-2-thienyl)-1H-pyrazol-1-yl]pyridine-3-carboxamide] | ++ (Ki(cathepsin L)/Ki(calpain) ratio of ≧50) | ≤ 0.04 µM | ++ (Ki(cathepsin K)/Ki(calpain) ratio of ≧30) | ++ (Ki(cathepsin S)/Ki(calpain) ratio of ≧100) | ++ (Ki(cathepsin B)/Ki(calpain) ratio of ≧30) |
| NC(=O)C(=O)C(Cc1ccccc1)NC(=O)c1cccnc1-n1ccc(-c2cccc3ccccc23)n1 (stereo not shown) [Example 110, N-[3-Amino-2,3-dioxo-1-(phenylmethyl)propyl]-2-(3-naphthalen-1-yl-1H-pyrazol-1-yl)pyridine-3-carboxamide] | ++ (Ki(cathepsin L)/Ki(calpain) ratio of ≧50) | ≤ 0.04 µM | ++ (Ki(cathepsin K)/Ki(calpain) ratio of ≧30) | ++ (Ki(cathepsin S)/Ki(calpain) ratio of ≧100) | ++ (Ki(cathepsin B)/Ki(calpain) ratio of ≧30) |
| COc1ccc(CC(NC(=O)c2cccnc2-n2ccc(-c3ccc(F)cc3Cl)n2)C(=O)C(N)=O)cc1 (stereo not shown) [Example 111, N-(3-Amino-1-{[4-(methyloxy)phenyl]methyl}-2,3-dioxopropyl)-2-[3-(2-chloro-4-fluorophenyl)-1H-pyrazol-1-yl]pyridine-3-carboxamide] | ++ (Ki(cathepsin L)/Ki(calpain) ratio of ≧50) | ≤ 0.04 µM | ++ (Ki(cathepsin K)/Ki(calpain) ratio of ≧30) | ++ (Ki(cathepsin S)/Ki(calpain) ratio of ≧100) | ++ (Ki(cathepsin B)/Ki(calpain) ratio of ≧30) |
